In the CheMixHub ionic liquid set:

Experiment: xn = mol fraction of the nth substance listed

O=S(=O)([N-]S(=O)(=O)C(F)(F)F)C(F)(F)F.[Li+] + CC[n+]1ccn(C)c1.O=S(=O)([O-])C(F)(F)F + O
Settings | electrical conductivity [S/m] | viscosity [mPa·s]
283 K, 101 kPa, x1 = 0.2649, x2 = 0.2649 | 0.36 | 96.6
283 K, 101 kPa, x1 = 0.4189, x2 = 0.2649 | 0.056 | –
283 K, 101 kPa, x1 = 0.5195, x2 = 0.3509 | 0.014 | –
293 K, 101 kPa, x1 = 0.2649, x2 = 0.2649 | 0.54 | 60.2
293 K, 101 kPa, x1 = 0.4189, x2 = 0.2649 | 0.1 | 410
293 K, 101 kPa, x1 = 0.5195, x2 = 0.3509 | 0.03 | –
293.15 K, 100 kPa, x1 = 0.2745, x2 = 0.3509 | – | 69.3
293.15 K, 100 kPa, x1 = 0.3106, x2 = 0.3509 | – | 87
293.15 K, 100 kPa, x1 = 0.3509, x2 = 0.3509 | – | 129
293.15 K, 100 kPa, x1 = 0.3868, x2 = 0.3509 | – | 190
293.15 K, 100 kPa, x1 = 0.4189, x2 = 0.3509 | – | 292
293.15 K, 100 kPa, x1 = 0.4478, x2 = 0.3509 | – | 428
293.15 K, 100 kPa, x1 = 0.474, x2 = 0.3509 | – | 611
293.15 K, 100 kPa, x1 = 0.4978, x2 = 0.3509 | – | 880
293.15 K, 100 kPa, x1 = 0.5195, x2 = 0.3509 | – | 1587
298.1 K, 101 kPa, x1 = 0.2649, x2 = 0.2649 | 0.65 | 48.9
298.1 K, 101 kPa, x1 = 0.4189, x2 = 0.2649 | 0.14 | 302
298.1 K, 101 kPa, x1 = 0.5195, x2 = 0.3509 | 0.042 | 1125
298.15 K, 100 kPa, x1 = 0.2745, x2 = 0.3509 | – | 55
298.15 K, 100 kPa, x1 = 0.3106, x2 = 0.3509 | – | 73.5
298.15 K, 100 kPa, x1 = 0.3509, x2 = 0.3509 | – | 102
298.15 K, 100 kPa, x1 = 0.3868, x2 = 0.3509 | – | 147
298.15 K, 100 kPa, x1 = 0.4189, x2 = 0.3509 | – | 219
298.15 K, 100 kPa, x1 = 0.4478, x2 = 0.3509 | – | 316
298.15 K, 100 kPa, x1 = 0.474, x2 = 0.3509 | – | 439
298.15 K, 100 kPa, x1 = 0.4978, x2 = 0.3509 | – | 618
298.15 K, 100 kPa, x1 = 0.5195, x2 = 0.3509 | – | 1082
303 K, 101 kPa, x1 = 0.2649, x2 = 0.2649 | 0.77 | 40.2
303 K, 101 kPa, x1 = 0.4189, x2 = 0.2649 | 0.17 | 227
303 K, 101 kPa, x1 = 0.5195, x2 = 0.3509 | 0.057 | 789
303.15 K, 100 kPa, x1 = 0.2745, x2 = 0.3509 | – | 44.4
303.15 K, 100 kPa, x1 = 0.3106, x2 = 0.3509 | – | 59.3
303.15 K, 100 kPa, x1 = 0.3509, x2 = 0.3509 | – | 81.4
303.15 K, 100 kPa, x1 = 0.3868, x2 = 0.3509 | – | 115
303.15 K, 100 kPa, x1 = 0.4189, x2 = 0.3509 | – | 166
303.15 K, 100 kPa, x1 = 0.4478, x2 = 0.3509 | – | 238
303.15 K, 100 kPa, x1 = 0.474, x2 = 0.3509 | – | 326
303.15 K, 100 kPa, x1 = 0.4978, x2 = 0.3509 | – | 452
303.15 K, 100 kPa, x1 = 0.5195, x2 = 0.3509 | – | 770
313 K, 101 kPa, x1 = 0.2649, x2 = 0.2649 | 1.05 | 28
313 K, 101 kPa, x1 = 0.4189, x2 = 0.2649 | 0.27 | 138
313 K, 101 kPa, x1 = 0.5195, x2 = 0.3509 | 0.1 | 418
313.15 K, 100 kPa, x1 = 0.2745, x2 = 0.3509 | – | 30.6
313.15 K, 100 kPa, x1 = 0.3106, x2 = 0.3509 | – | 40.1
313.15 K, 100 kPa, x1 = 0.3509, x2 = 0.3509 | – | 54.2
313.15 K, 100 kPa, x1 = 0.3868, x2 = 0.3509 | – | 75.3
313.15 K, 100 kPa, x1 = 0.4189, x2 = 0.3509 | – | 104
313.15 K, 100 kPa, x1 = 0.4478, x2 = 0.3509 | – | 144
313.15 K, 100 kPa, x1 = 0.474, x2 = 0.3509 | – | 191
313.15 K, 100 kPa, x1 = 0.4978, x2 = 0.3509 | – | 255
313.15 K, 100 kPa, x1 = 0.5195, x2 = 0.3509 | – | 413
323 K, 101 kPa, x1 = 0.2649, x2 = 0.2649 | 1.38 | 20.4
323 K, 101 kPa, x1 = 0.4189, x2 = 0.2649 | 0.4 | 87.4
323 K, 101 kPa, x1 = 0.5195, x2 = 0.3509 | 0.16 | 243
323.15 K, 100 kPa, x1 = 0.2745, x2 = 0.3509 | – | 22.1
323.15 K, 100 kPa, x1 = 0.3106, x2 = 0.3509 | – | 28.7
323.15 K, 100 kPa, x1 = 0.3509, x2 = 0.3509 | – | 37.6
323.15 K, 100 kPa, x1 = 0.3868, x2 = 0.3509 | – | 49.3
323.15 K, 100 kPa, x1 = 0.4189, x2 = 0.3509 | – | 63.9
323.15 K, 100 kPa, x1 = 0.4478, x2 = 0.3509 | – | 92.9
323.15 K, 100 kPa, x1 = 0.474, x2 = 0.3509 | – | 120
323.15 K, 100 kPa, x1 = 0.4978, x2 = 0.3509 | – | 155
323.15 K, 100 kPa, x1 = 0.5195, x2 = 0.3509 | – | 239
333 K, 101 kPa, x1 = 0.2649, x2 = 0.2649 | 1.76 | 15.3
333 K, 101 kPa, x1 = 0.4189, x2 = 0.2649 | 0.56 | 58
333 K, 101 kPa, x1 = 0.5195, x2 = 0.3509 | 0.24 | 149
333.15 K, 100 kPa, x1 = 0.2745, x2 = 0.3509 | – | 16.5
333.15 K, 100 kPa, x1 = 0.3106, x2 = 0.3509 | – | 21.2
333.15 K, 100 kPa, x1 = 0.3509, x2 = 0.3509 | – | 27.2
333.15 K, 100 kPa, x1 = 0.3868, x2 = 0.3509 | – | 34.1
333.15 K, 100 kPa, x1 = 0.4189, x2 = 0.3509 | – | 44
333.15 K, 100 kPa, x1 = 0.4478, x2 = 0.3509 | – | 56.7
333.15 K, 100 kPa, x1 = 0.474, x2 = 0.3509 | – | 80
333.15 K, 100 kPa, x1 = 0.4978, x2 = 0.3509 | – | 102
333.15 K, 100 kPa, x1 = 0.5195, x2 = 0.3509 | – | 150
343.15 K, 100 kPa, x1 = 0.2745, x2 = 0.3509 | – | 12.7
343.15 K, 100 kPa, x1 = 0.3106, x2 = 0.3509 | – | 16.1
343.15 K, 100 kPa, x1 = 0.3509, x2 = 0.3509 | – | 19.6
343.15 K, 100 kPa, x1 = 0.3868, x2 = 0.3509 | – | 25.1
343.15 K, 100 kPa, x1 = 0.4189, x2 = 0.3509 | – | 31.6
343.15 K, 100 kPa, x1 = 0.4478, x2 = 0.3509 | – | 39.9
343.15 K, 100 kPa, x1 = 0.474, x2 = 0.3509 | – | 51.1
343.15 K, 100 kPa, x1 = 0.4978, x2 = 0.3509 | – | 64.1
343.15 K, 100 kPa, x1 = 0.5195, x2 = 0.3509 | – | 91.5
353.15 K, 100 kPa, x1 = 0.2745, x2 = 0.3509 | – | 10
353.15 K, 100 kPa, x1 = 0.3106, x2 = 0.3509 | – | 12.6
353.15 K, 100 kPa, x1 = 0.3509, x2 = 0.3509 | – | 15.1
353.15 K, 100 kPa, x1 = 0.3868, x2 = 0.3509 | – | 19
353.15 K, 100 kPa, x1 = 0.4189, x2 = 0.3509 | – | 23.6
353.15 K, 100 kPa, x1 = 0.4478, x2 = 0.3509 | – | 29.2
353.15 K, 100 kPa, x1 = 0.474, x2 = 0.3509 | – | 36.7
353.15 K, 100 kPa, x1 = 0.4978, x2 = 0.3509 | – | 45.9
353.15 K, 100 kPa, x1 = 0.5195, x2 = 0.3509 | – | 58
363.15 K, 100 kPa, x1 = 0.2745, x2 = 0.3509 | – | 7.98
363.15 K, 100 kPa, x1 = 0.3106, x2 = 0.3509 | – | 10
363.15 K, 100 kPa, x1 = 0.3509, x2 = 0.3509 | – | 11.9
363.15 K, 100 kPa, x1 = 0.3868, x2 = 0.3509 | – | 14.8
363.15 K, 100 kPa, x1 = 0.4189, x2 = 0.3509 | – | 18.1
363.15 K, 100 kPa, x1 = 0.4478, x2 = 0.3509 | – | 22.1
363.15 K, 100 kPa, x1 = 0.474, x2 = 0.3509 | – | 27.3
363.15 K, 100 kPa, x1 = 0.4978, x2 = 0.3509 | – | 33.8
363.15 K, 100 kPa, x1 = 0.5195, x2 = 0.3509 | – | 41.6
